# System: cerebral vessels
# Procedure: A person with a history of hypertension experiences a first stroke in the left middle cerebral artery resulting in deficits in the right hand, leg, and some deficits in motor speech. These are the symptoms upon presentation in the neurological clinic. Transcranial Doppler analysis of all cerebral vessels is performed in addition to analyzing the common carotid artery and the internal carotid artery.
# The physician considers prescription of Plavix together with a calcium channel blocker. Transcranial Doppler analysis was performed at monthly intervals. […] The physician subsequently administers a higher dose. Again, transcranial Doppler analysis is performed on all cerebral vessels.
smiles,measurement,setting,value
COC(=O)[C@H](c1ccccc1Cl)N1CCc2sccc2C1 [Plavix],changes in the individual cerebral vessels (transcranial Doppler),"person after first stroke, Plavix +/− calcium channel blocker, initial dose, analysis at monthly intervals",no effect on the cerebral vessels
same,auto-regulation curve (transcranial Doppler),"same patient, higher dose",left-shifts toward normal
same,pulsatility index of the vessel studied (transcranial Doppler),"same patient, higher dose",decreases

# Reference: US6692443B2, “Systems and methods for investigating blood flow” (New Health Sciences, Inc., priority 2000, dated 2004)
